The source of these data is PMC11189026 (Chemical communications (Cambridge, England), 2024).

Series [1] has as its target αvβ3 integrin (Homo sapiens, UniProt P05106+P06756). The class given is binding. Conditions: ratio of Ki values, FP competition.
In another series the test system is aminopeptidase. Kind of series: Aminopeptidase challenge of cyclised and uncyclised lanthipeptides. Conditions: compared to the uncyclised compounds; Fig. S7.
Series [2] has as its target αvβ3 integrin (UniProt P06756 31-1048; P05106 27-788). The series is described as follows: fluorescence polarisation; competition of the lanthipeptides against fluorescently labelled c(RGDyK) for αvβ3 integrin; Ki from competition curves. Conditions: both partners purified.

Sequence of αvβ3 integrin (UniProt P06756 31-1048; P05106 27-788) (P06756 31-1048, chain 1 of 2): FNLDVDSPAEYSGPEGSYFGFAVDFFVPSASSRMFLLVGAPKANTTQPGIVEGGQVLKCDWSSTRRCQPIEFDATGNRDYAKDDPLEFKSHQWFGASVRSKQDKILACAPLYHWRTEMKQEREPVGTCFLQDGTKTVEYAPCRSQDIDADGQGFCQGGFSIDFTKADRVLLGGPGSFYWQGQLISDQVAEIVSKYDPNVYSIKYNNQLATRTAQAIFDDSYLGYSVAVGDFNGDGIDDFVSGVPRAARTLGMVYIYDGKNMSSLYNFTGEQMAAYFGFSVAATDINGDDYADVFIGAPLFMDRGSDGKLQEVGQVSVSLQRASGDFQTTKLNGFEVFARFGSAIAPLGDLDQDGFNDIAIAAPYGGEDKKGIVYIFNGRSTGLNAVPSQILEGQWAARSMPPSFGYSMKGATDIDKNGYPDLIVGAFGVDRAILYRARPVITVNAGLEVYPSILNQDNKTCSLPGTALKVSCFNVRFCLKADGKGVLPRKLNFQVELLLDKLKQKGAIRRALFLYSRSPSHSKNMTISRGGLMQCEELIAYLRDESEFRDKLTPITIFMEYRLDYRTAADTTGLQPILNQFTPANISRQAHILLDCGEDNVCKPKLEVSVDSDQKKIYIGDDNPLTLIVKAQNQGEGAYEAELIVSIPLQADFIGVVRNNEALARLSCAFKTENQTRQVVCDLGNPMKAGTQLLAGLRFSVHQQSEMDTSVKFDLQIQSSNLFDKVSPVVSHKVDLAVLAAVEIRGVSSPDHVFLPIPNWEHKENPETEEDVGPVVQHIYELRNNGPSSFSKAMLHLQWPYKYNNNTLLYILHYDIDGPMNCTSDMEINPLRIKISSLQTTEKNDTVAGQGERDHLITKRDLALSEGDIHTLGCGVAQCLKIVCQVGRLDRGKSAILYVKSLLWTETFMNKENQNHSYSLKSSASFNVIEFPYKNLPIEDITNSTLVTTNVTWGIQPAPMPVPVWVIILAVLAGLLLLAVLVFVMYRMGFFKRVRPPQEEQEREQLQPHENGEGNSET
Sequence of αvβ3 integrin (UniProt P06756 31-1048; P05106 27-788) (P05106 27-788, chain 2 of 2): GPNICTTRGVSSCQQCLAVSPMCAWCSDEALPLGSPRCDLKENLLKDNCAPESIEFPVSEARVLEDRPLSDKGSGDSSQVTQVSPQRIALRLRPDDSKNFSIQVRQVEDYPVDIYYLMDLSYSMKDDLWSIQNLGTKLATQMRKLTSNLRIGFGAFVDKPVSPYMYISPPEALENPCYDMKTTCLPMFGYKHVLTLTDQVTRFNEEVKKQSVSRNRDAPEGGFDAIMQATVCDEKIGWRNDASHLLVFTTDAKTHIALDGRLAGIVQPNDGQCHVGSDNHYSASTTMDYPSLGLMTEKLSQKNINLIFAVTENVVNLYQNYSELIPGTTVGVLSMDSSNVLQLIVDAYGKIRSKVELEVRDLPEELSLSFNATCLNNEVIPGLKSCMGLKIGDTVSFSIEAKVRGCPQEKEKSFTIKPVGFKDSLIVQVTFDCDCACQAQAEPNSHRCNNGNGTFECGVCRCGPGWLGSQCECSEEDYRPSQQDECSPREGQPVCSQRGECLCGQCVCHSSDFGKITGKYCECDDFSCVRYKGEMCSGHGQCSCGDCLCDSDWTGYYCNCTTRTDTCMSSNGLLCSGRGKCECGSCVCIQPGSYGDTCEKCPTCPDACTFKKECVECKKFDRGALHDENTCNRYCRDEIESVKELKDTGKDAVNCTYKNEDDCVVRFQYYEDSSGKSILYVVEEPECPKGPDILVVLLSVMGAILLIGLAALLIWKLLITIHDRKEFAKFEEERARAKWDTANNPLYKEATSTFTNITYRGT
Sequence of αvβ3 integrin (Homo sapiens, UniProt P05106+P06756) (P06756 31-992 limits assumed): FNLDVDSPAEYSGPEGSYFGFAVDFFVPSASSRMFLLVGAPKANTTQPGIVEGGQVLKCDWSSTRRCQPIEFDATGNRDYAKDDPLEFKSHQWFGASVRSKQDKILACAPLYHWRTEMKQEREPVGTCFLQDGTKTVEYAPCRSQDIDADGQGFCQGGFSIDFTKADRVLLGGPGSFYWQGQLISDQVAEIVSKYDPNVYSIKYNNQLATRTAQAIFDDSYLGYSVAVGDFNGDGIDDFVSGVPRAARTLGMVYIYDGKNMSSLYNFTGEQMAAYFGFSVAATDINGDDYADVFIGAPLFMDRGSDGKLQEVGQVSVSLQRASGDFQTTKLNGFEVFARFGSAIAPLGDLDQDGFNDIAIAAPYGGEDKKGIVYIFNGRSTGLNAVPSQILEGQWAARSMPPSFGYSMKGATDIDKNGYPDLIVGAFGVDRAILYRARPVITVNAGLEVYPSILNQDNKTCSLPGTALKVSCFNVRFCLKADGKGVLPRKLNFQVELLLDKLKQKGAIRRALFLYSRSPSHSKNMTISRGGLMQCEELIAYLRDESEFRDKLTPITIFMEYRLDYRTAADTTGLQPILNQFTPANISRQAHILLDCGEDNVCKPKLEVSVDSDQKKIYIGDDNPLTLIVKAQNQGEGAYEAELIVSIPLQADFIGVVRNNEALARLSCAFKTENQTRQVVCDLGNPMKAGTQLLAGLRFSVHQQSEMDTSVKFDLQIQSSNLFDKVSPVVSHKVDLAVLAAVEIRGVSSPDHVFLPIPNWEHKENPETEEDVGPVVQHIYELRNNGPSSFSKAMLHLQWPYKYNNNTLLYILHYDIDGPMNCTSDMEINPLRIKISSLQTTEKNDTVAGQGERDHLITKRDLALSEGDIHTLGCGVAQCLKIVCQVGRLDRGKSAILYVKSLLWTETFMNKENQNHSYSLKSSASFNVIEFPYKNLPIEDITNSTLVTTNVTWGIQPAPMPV
Sequence of αvβ3 integrin (Homo sapiens, UniProt P05106+P06756) (P05106 27-718 limits assumed): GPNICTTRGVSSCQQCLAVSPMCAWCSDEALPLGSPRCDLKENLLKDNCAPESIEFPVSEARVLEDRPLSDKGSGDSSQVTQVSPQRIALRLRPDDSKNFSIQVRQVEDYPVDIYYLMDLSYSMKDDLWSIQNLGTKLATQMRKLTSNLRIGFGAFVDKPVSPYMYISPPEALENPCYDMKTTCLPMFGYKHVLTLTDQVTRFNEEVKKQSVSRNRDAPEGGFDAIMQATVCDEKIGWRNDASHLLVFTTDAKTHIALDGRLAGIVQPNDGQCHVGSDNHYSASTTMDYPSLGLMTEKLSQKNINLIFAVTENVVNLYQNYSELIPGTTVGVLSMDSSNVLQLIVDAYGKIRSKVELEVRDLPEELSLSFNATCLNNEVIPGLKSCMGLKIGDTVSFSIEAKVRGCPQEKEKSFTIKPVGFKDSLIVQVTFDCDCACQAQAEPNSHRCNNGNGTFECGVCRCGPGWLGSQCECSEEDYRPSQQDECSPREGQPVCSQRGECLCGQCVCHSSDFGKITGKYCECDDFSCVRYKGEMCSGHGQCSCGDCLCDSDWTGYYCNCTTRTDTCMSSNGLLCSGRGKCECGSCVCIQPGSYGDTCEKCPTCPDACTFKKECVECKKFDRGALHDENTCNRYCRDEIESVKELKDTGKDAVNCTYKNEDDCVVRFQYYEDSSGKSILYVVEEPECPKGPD

`CSCC[C@@H]1NC(=O)[C@H]2CSC[C@H](NC(=O)[C@H](C)NC(=O)[C@H](C)NC(=O)[C@H](CC(N)=O)NC(=O)[C@@H]3CSC[C@@H](NC(=O)[C@@H]4CCCN4C(=O)[C@@H]4CCCN4C1=O)C(=O)N[C@@H](Cc1ccc(O)cc1)C(=O)N[C@@H](CCCNC(=N)N)C(=O)NCC(=O)N[C@@H](CC(=O)O)C(=O)N[C@@H](CCC(=O)O)C(=O)N3)C(=O)N[C@@H](Cc1c[nH]cn1)C(=O)N[C@@H](CC(N)=O)C(=O)N[C@@H](Cc1c[nH]cn1)C(=O)N[C@@H](C)C(=O)N1CCC[C@H]1C(=O)N2` [c15RGD]: the “fold higher affinity for αvβ3 integrin, N-to-C cyclised vs noncyclised” value at αvβ3 integrin [1] was 4 fold. Also, in the series on aminopeptidase, the resistance to aminopeptidase entry was “resistant to aminopeptidase”. On to `CSCC[C@@H]1NC(=O)[C@H]2CSC[C@H](NC(=O)[C@H](C)NC(=O)[C@H](C)NC(=O)[C@H](CC(N)=O)NC(=O)[C@@H]3CSC[C@@H](NC(=O)[C@@H]4CCCN4C(=O)[C@@H]4CCCN4C1=O)C(=O)N[C@@H](Cc1ccc(O)cc1)C(=O)N[C@@H](Cc1c[nH]c4ccccc14)C(=O)N[C@@H](CCCNC(=N)N)C(=O)NCC(=O)N[C@@H](CC(=O)O)C(=O)N3)C(=O)N[C@@H](Cc1c[nH]cn1)C(=O)N[C@@H](CC(N)=O)C(=O)N[C@@H](Cc1c[nH]cn1)C(=O)N[C@@H](C)C(=O)N1CCC[C@H]1C(=O)N2` [c16RGD], for which the resistance to aminopeptidase result in the series with aminopeptidase was “resistant to aminopeptidase”.

B1: N-to-C cyclised prochlorosin 16RGD (OaAEP1-cyclised lanthipeptide) (peptide)
chain: cyclo(AACHNHAPSMPPSYWRGDCN)
modifications: thioether (positions not given here); also: lanthionine linkages installed by ProcM, places not given here, thioether: lanthionine
B1: the Ki in the series with αvβ3 integrin [2] was 0.28 ± 0.03 µM.

B2: N-to-C cyclised prochlorosin 15RGD (OaAEP1-cyclised lanthipeptide) (peptide)
chain: cyclo(AACHNHAPSMPPSYRGDECN)
modifications: thioether (positions not given here); also: lanthionine linkages installed by ProcM, places not given here, thioether: lanthionine
In turn, B2 yielded a Ki in the series with αvβ3 integrin [2] of 7.7 ± 1.3 µM.
